The test system of the assay is TUBO tumors. The assay can be described thus: Mono- and combination therapies in HER2+ TUBO bearing mice (FIG. 8, FIG. 9). It counts as in vivo, Balb/C mice. Particulars: monotherapy. How it is done:
Balb/C mice or C57BL/6 mice received tumor cells on day 0 followed by different treatments; two doses of Taxol given intraperitoneally (i.p.) once a week; CDK inhibitor, abemaciclib was administered by oral gavage till end point; Anti-PD-L1 was given i.p. twice a week until end point; DC1 vaccine was given intratumorally.
Balb/C mice bearing TUBO tumors were treated with intratumoral HER2-DC1 vaccine alone or anti-HER2 antibody or a combination of both.
TUBO bearing mice were treated with intratumoral HER2-DC1 vaccine alone or Abemaciclib or a combination of both.
Here, we can investigate the role of gut microbiome in response to combination therapy. […] Balb/C mice bearing TUBO tumors were treated with intratumoral HER-DC1 alone or anti-HER2 antibody (7.16.4+7.9.5) alone or combination of both. While CDK inhibitor, abemaciclib was given daily by oral gavage alone or in combination with intratumoral HER2-DC1.

As to `CC(=O)O[C@H]1C(=O)[C@@]2(C)[C@H]([C@H](OC(=O)c3ccccc3)[C@]3(O)C[C@H](OC(=O)[C@H](O)[C@@H](NC(=O)c4ccccc4)c4ccccc4)C(C)=C1C3(C)C)[C@]1(OC(C)=O)CO[C@@H]1C[C@@H]2O` [taxol, paclitaxel], the tumor growth result was “modestly delayed tumor growth”.

These data come from patent US20240009232A1, “COMBINATION THERAPY COMPRISING HER-2-DC1 VACCINE AND A PROBIOTIC” (H. LEE MOFFITT CANCER CENTER AND RESEARCH INSTITUTE, INC., priority 2021, published 2024).
